Patent US20250179079A1, “HEXAHYDROPYRIDO[4,3-B]INDOLYL KETONE DERIVATIVES USEFUL AS CGAS MODULATORS” (Ventus Therapeutics U.S., Inc., priority 2022, published 2025)
Converted amounts (≈) assume the structure as drawn. Like-named read-outs stand apart in the source and are kept apart here.

Experiments:
[1] = Solubility (e.g., in phosphate buffered saline (PBS)); assay type: physicochemical; details: aqueous buffer, Table D
[2] = molecular target: h-cGAS (Homo sapiens (Human), UniProt Q8N884); assay: hcGAS Kinase-Glo assay; assay type: biochemical
[3] = Table D comparative data, IC50 range designation, read-out: hcGAS (IC50)
[4] = Table D comparative data, raw data in parentheses, read-out: hcGAS (IC50)
[5] = Table C, raw data in parentheses, read-out: hcGAS IC50

h-cGAS, sequence (Q8N884 whole entry): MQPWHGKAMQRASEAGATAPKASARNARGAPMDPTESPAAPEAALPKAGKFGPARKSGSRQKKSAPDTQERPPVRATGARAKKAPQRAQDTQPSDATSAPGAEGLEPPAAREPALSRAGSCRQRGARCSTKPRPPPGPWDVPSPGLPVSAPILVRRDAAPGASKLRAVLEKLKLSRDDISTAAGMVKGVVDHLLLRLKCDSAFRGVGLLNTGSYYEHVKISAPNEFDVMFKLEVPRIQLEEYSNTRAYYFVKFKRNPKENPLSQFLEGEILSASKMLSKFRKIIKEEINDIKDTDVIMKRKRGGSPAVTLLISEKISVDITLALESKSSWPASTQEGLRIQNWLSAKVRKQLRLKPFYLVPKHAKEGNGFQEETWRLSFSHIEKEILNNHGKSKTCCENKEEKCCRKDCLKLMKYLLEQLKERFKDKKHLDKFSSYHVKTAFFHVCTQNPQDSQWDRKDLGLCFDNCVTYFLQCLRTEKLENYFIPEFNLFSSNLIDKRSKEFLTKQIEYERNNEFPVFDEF

| SMILES | solubility [1] [µM] | IC50 [2, 5] [nM] | also measured |
| --- | --- | --- | --- |
| O=C(CO)N1CCc2[nH]c3c(Cl)c(Cl)ccc3c2C1 [Comparative Example A, 1-(6,7-dichloro-1,3,4,5-tetrahydro-2H-pyrido[4,3-b]indol-2-yl)-2-hydroxyethan-1-one] | 2 (≈ 0.598 µg/mL) |  |  |
| Cn1ccc(-c2cc(Cl)c(Cl)c3nn4c(c23)CN(C(=O)CO)CC4)n1 [Comparative Example D, 1-(7,8-dichloro-10-(1-methyl-1H-pyrazol-3-yl)-3,4-dihydropyrazino[1,2-b]indazol-2(1H)-yl)-2-hydroxyethan-1-one, reference compound] | 53 (≈ 20.2 µg/mL) |  |  |
| Cn1ccc(-c2cc(Cl)c(Cl)c3[nH]c4c(c23)CN(C(=O)CO)CC4)n1 [Comparative Example B, 1-(6,7-dichloro-9-(1-methyl-1H-pyrazol-3-yl)-1,3,4,5-tetrahydro-2H-pyrido[4,3-b]indol-2-yl)-2-hydroxyethan-1-one, reference compound] | 8.1 (≈ 3.07 µg/mL) |  | IC50 [2, 3]: < 100 nM; IC50 [2, 4]: 35.2 nM |
| C[C@H]1c2c([nH]c3c(Cl)c(Cl)ccc23)CCN1C(=O)CO [Compound 157, (S)-1-(6,7-dichloro-1-methyl-1,3,4,5-tetrahydro-2H-pyrido[4,3-b]indol-2-yl)-2-hydroxyethan-1-one] | 42 (≈ 13.2 µg/mL) |  |  |
| O=C(CO)N1CCn2nc3c(Cl)c(Cl)ccc3c2C1 [Comparative Example C, 1-(7,8-dichloro-3,4-dihydropyrazino[1,2-b]indazol-2(1H)-yl)-2-hydroxyethan-1-one, reference compound] | 76 (≈ 22.8 µg/mL) |  | IC50 [2, 3]: > 5000 nM; IC50 [2, 4]: 12800 nM |
| CC1c2c([nH]c3c(Cl)c(Cl)ccc23)CCN1C(=O)c1ncc(N2CCN(C3COC3)CC2)cn1 (racemic) [Rac-49, (6,7-dichloro-1-methyl-1,3,4,5-tetrahydro-2H-pyrido[4,3-b]indol-2-yl)(5-(4-(oxetan-3-yl)piperazin-1-yl)pyrimidin-2-yl)methanone] |  | 102 |  |
| Cn1cnc(C(=O)N2CCc3[nH]c4c(Cl)c(Cl)ccc4c3C2)n1 [Compound 9, (6,7-dichloro-1,3,4,5-tetrahydro-2H-pyrido[4,3-b]indol-2-yl)(1-methyl-1H-1,2,4-triazol-3-yl)methanone] |  | 1070 | IC50 ([2]; Table C, IC50 range designation, read-out: hcGAS IC50): 1000 to 5000 nM; IC50 ([2]; read-out: hcGAS activity): 1000 to 5000 nM |
| CC1c2c([nH]c3c(Cl)c(Cl)ccc23)CCN1C(=O)c1ncc(N2CCOCC2)cn1 (racemic) [Rac-44, (6,7-dichloro-1-methyl-1,3,4,5-tetrahydro-2H-pyrido[4,3-b]indol-2-yl)(5-morpholinopyrimidin-2-yl)methanone] |  | 68.5 | IC50 ([2]; read-out: hcGAS activity): < 100 nM |
